In ChEMBL document CHEMBL1201862, “PubChem BioAssay data set” (2004):
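In this assay, cells in 96-well plates receive the compound at five concentrations for 48 hours. Endpoints are linearly interpolated between the surrounding concentrations. At the GI50, growth is halved.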 Calls of active or inactive are those of the source. No stated cut-off is given here; in the data, active = GI50 up to about 1.1 µM and inactive = higher.

Legend:
Test in all cases: inhibition of tumour cell growth, NCI panel, 48 h
NCI-H23 = test system: NCI-H23
M14 = test system: M14
KM12 = test system: KM12
HCC 2998 = test system: HCC 2998
TK-10 = test system: TK-10
UACC-257 = test system: UACC-257
SF-268 = test system: SF-268
OVCAR-4 = test system: OVCAR-4
ACHN = test system: ACHN
CAKI-1 = test system: CAKI-1
MCF7 = test system: MCF7
UO-31 = test system: UO-31
SW-620 = test system: SW-620
RXF 393 = test system: RXF 393
U-251 = test system: U-251
NCI-H226 = test system: NCI-H226
LOX IMVI = test system: LOX IMVI
OVCAR-8 = test system: OVCAR-8
COLO 205 = test system: COLO 205
SR = test system: SR

Compound	GI50 (NCI-H23)	GI50 (M14)	GI50 (KM12)	GI50 (HCC 2998)	GI50 (TK-10)	GI50 (UACC-257)	GI50 (SF-268)	GI50 (OVCAR-4)	GI50 (ACHN)	GI50 (CAKI-1)	GI50 (MCF7)	GI50 (UO-31)	GI50 (SW-620)	GI50 (RXF 393)	GI50 (U-251)	GI50 (NCI-H226)	GI50 (LOX IMVI)	GI50 (OVCAR-8)	GI50 (COLO 205)	GI50 (SR)
COc1cc2c(OC)c3cc(C)oc(=O)c3c(O)c2c(O)c1-c1c(OC)cc2c(OC)c3cc(C)oc(=O)c3c(O)c2c1O	16.6 µM (inactive)	18.1 µM (inactive)	19.1 µM (inactive)	18.9 µM (inactive)	24.4 µM (inactive)	20.2 µM (inactive)	21.5 µM (inactive)	39.1 µM (inactive)	16.5 µM (inactive)	15.2 µM (inactive)	25.6 µM (inactive)	18.5 µM (inactive)	30 µM (inactive)	20.1 µM (inactive)	15.8 µM (inactive)	20.3 µM (inactive)	19.6 µM (inactive)	13 µM (inactive)	–	–
N#Cc1ccc(Oc2nc3ccccc3nc2-c2ccccc2)cc1	> 100 µM (inactive)	–	> 100 µM (inactive)	> 100 µM (inactive)	> 100 µM (inactive)	> 100 µM (inactive)	> 100 µM (inactive)	> 100 µM (inactive)	> 100 µM (inactive)	> 100 µM (inactive)	> 100 µM (inactive)	> 100 µM (inactive)	> 100 µM (inactive)	> 100 µM (inactive)	> 100 µM (inactive)	> 100 µM (inactive)	> 100 µM (inactive)	–	> 100 µM (inactive)	–
COc1ccc(C2CC(c3ccccc3)=Nc3c(-c4ccccc4)nnn32)cc1 (stereo unspecified)	> 100 µM (inactive)	> 100 µM (inactive)	46.9 µM (inactive)	–	–	> 100 µM (inactive)	> 100 µM (inactive)	–	17 µM (inactive)	98.4 µM (inactive)	> 100 µM (inactive)	> 100 µM (inactive)	> 100 µM (inactive)	–	9.84 µM (inactive)	> 100 µM (inactive)	> 100 µM (inactive)	37.3 µM (inactive)	> 100 µM (inactive)	23.3 µM (inactive)
O=C(NC(C(F)(F)F)(C(F)(F)F)P(=O)(c1ccccc1)c1ccccc1)C(C(F)(F)F)C(F)(F)F	21.7 µM (inactive)	17.1 µM (inactive)	26.2 µM (inactive)	> 100 µM (inactive)	37.2 µM (inactive)	29.4 µM (inactive)	28.9 µM (inactive)	37.7 µM (inactive)	16.7 µM (inactive)	0.0131 µM (active)	26.2 µM (inactive)	–	40.6 µM (inactive)	20.2 µM (inactive)	36.6 µM (inactive)	68.9 µM (inactive)	23.2 µM (inactive)	29.3 µM (inactive)	20.2 µM (inactive)	–
CCOCc1nc2c(OC)c(-c3nc4ccc(N5CCN(C)CC5)cc4[nH]3)cc(OC)c2[nH]1	37.8 µM (inactive)	20.2 µM (inactive)	31.6 µM (inactive)	–	53.3 µM (inactive)	19 µM (inactive)	63.4 µM (inactive)	71.8 µM (inactive)	57.4 µM (inactive)	27.6 µM (inactive)	47.6 µM (inactive)	22.1 µM (inactive)	34.7 µM (inactive)	16 µM (inactive)	43.3 µM (inactive)	31.9 µM (inactive)	21.1 µM (inactive)	80.2 µM (inactive)	18.9 µM (inactive)	24.2 µM (inactive)
CCC(C#N)NCc1ccc(CNC(C#N)CC)cc1 (stereo unspecified)	> 100 µM (inactive)	> 100 µM (inactive)	> 100 µM (inactive)	> 100 µM (inactive)	> 100 µM (inactive)	> 100 µM (inactive)	> 100 µM (inactive)	> 100 µM (inactive)	> 100 µM (inactive)	> 100 µM (inactive)	> 100 µM (inactive)	95.7 µM (inactive)	> 100 µM (inactive)	> 100 µM (inactive)	> 100 µM (inactive)	> 100 µM (inactive)	> 100 µM (inactive)	> 100 µM (inactive)	> 100 µM (inactive)	–
OC(C1CCCC1=N/N=C1/CCCC1C(O)(C(F)(F)Cl)C(F)(F)Cl)(C(F)(F)Cl)C(F)(F)Cl (stereo unspecified)	> 10 µM (inactive)	> 10 µM (inactive)	> 10 µM (inactive)	> 10 µM (inactive)	> 10 µM (inactive)	> 10 µM (inactive)	> 10 µM (inactive)	> 10 µM (inactive)	> 10 µM (inactive)	> 10 µM (inactive)	> 10 µM (inactive)	–	> 10 µM (inactive)	> 10 µM (inactive)	> 10 µM (inactive)	> 10 µM (inactive)	> 10 µM (inactive)	> 10 µM (inactive)	> 10 µM (inactive)	–
S=C(NC/C(Br)=C/Br)Nc1cccc2ccccc12	23.5 µM (inactive)	16.8 µM (inactive)	–	–	40.6 µM (inactive)	22.5 µM (inactive)	–	30.3 µM (inactive)	28.9 µM (inactive)	29.2 µM (inactive)	20 µM (inactive)	20.9 µM (inactive)	–	31.3 µM (inactive)	30.3 µM (inactive)	26.7 µM (inactive)	24.8 µM (inactive)	27.6 µM (inactive)	18.5 µM (inactive)	15.4 µM (inactive)
